Converted amounts (≈) assume the structure as drawn. Where two headings read alike, the source gives them in different places.

We go through seven compounds from patent US20050245498A1, “Sterically-awkward beta-lactamase inhibitors” (priority 2002, published 2005).

Data set [1] has as its target T1, AmpC β-lactamase (Escherichia coli, UniProt P00811). As to conditions: hydrolysis by AmpC, 1.75 nM enzyme, 50 mM Tris pH 7. As for the experimental part:
Escherichia coli. AmpC β-lactamase was expressed and purified to homogeneity as previously described. The AmpC-catalyzed hydrolysis of the various β-lactams was monitored in an HP8453 UV/visible spectrophotometer. […] The reaction buffer used during the assays was 50 mM tris hydroxymethyl aminomethane hydrochloride (Fisher, Fair Lawn N.J.) at pH 7 in doubly-deionized water. kcat and KM values were determined at an enzyme concentration of 1.75 nM, with enzyme concentration determined, from more concentrated stocks, based on an ε280 of 0.098 μM^−1 cm^−1. […] Except for compounds synthesized for this study (ATMO-penicillin, ATMO-loracarbef), all compounds were used as supplied from the manufacturers without further purification.
Enzymology. The AmpC-catalyzed hydrolysis of the β-lactams cefotaxime, ATMO-penicillin, and ATMO-loracarbef (FIG. 1B) were monitored by UV-vis spectroscopy (Table 1).

Data set [2] has as its system E. coli expressing AmpC β-lactamase. As to the kind of experiment: microbe, parasite or virus in culture. It counts as cell-based. As to conditions: for Minimum inhibitory concentration (MIC): E. coli expressing AmpC β-lactamase, Luria Broth, about 5×10^5 CFU/mL. The method, then:
(§1) Microbiology. Serial dilution assays in ligand culture were performed to examine the efficacy of these awkward β-lactams against clinically relevant pathogens grown in liquid culture (Table 3). The compounds were dissolved in KPi or tris hydroxymethyl aminomethane hydrochloride to a concentration of 20-50 mM, and serial dilutions were performed into Luria Broth (Difco, Detroit Mich.). Each broth solution was then inoculated with bacterial cells from an overnight culture that had been diluted to give an inoculum concentration of approximately 5×10^5 CFU/mL.

The test system of data set [3] is E. coli not expressing AmpC β-lactamase. As to the kind of experiment: microbe, parasite or virus in culture. As to conditions: for Minimum inhibitory concentration (MIC): E. coli not expressing AmpC β-lactamase, Luria Broth, about 5×10^5 CFU/mL. It counts as cell-based. As for the experimental part: as §1
The target in data set [4] is T1, AmpC β-lactamase. As to the kind of experiment: biochemical. Details: made in house. As to conditions: for IC50 compared to cefotaxime (fold lower): relative to cefotaxime IC50.
Data set [5] relates to CC(=O)OCC1=C(C(=O)O)N2C(=O)[C@@H](NC(=O)Cc3cccs3)[C@H]2SC1. In words: purified protein, by the assay type. As to conditions: other: hydrolysis by AmpC, 1.75 nM enzyme, 50 mM Tris pH 7.
For data set [6], the system named is CO/N=C(\C(=O)N[C@@H]1C(=O)N2C(C(=O)O)=C(COC(C)=O)CS[C@H]12)c1csc(N)n1. In words: purified protein, by the assay type. As to conditions: other: hydrolysis by AmpC, 1.75 nM enzyme, 50 mM Tris pH 7.
Data set [7] deals with CO/N=C(\C(=O)N[C@@H]1C(=O)N2[C@@H]1SC(C)(C)[C@@H]2C(=O)O)c1csc(N)n1. In words: purified protein, by the assay type. The conditions noted are these: other: hydrolysis by AmpC, 1.75 nM enzyme, 50 mM Tris pH 7.
The mark [8] stands for this setting: Escherichia coli, read-out: Minimum inhibitory concentration (MIC).

T1 sequence (P00811 20-377): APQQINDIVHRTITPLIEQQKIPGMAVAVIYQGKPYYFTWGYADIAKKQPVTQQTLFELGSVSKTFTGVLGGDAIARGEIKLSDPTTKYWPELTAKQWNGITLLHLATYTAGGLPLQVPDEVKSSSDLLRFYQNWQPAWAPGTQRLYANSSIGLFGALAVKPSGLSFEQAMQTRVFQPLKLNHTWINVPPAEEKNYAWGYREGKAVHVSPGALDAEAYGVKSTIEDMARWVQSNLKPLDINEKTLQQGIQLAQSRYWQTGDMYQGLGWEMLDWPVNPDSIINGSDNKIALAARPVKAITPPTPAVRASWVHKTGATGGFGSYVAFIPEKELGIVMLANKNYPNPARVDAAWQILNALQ

With `CON=C(C(=O)NC1C(=O)N2C(C(=O)O)=C(Cl)CCC12)c1csc(N)n1` (centres unmarked) [ATMO-loracarbef, 7-ATMO-3-chloro-carbacephem], at AmpC β-lactamase [1], the Kcat is 0.0323 s⁻¹. Besides, the “Minimum inhibitory concentration (MIC)” value is 1 µg/mL (≈ 2.5 µM) in data set [2] and “¼” in data set [3]. Further, the IC50 at AmpC β-lactamase [4] (against 200 μM nitrocefin, read-out: IC50) amounted to 80 nM. In addition, the “IC50 compared to cefotaxime (fold lower)” value against AmpC β-lactamase [4] is 11 fold.
On AmpC β-lactamase [1], `CO/N=C(\C(=O)N[C@@H]1C(=O)N2[C@@H]1SC(C)(C)[C@@H]2C(=O)O)c1csc(N)n1` [ATMO-penicillin] displayed a Kcat of less than 0.0045 s⁻¹. At AmpC β-lactamase [4], inhibition was half-maximal at 900 nM (IC50) and the “IC50 compared to cefotaxime (fold lower)” value was “comparable to cefotaxime”.
On to `CO/N=C(\C(=O)N[C@@H]1C(=O)N2C(C(=O)O)=C(COC(C)=O)CS[C@H]12)c1csc(N)n1` [Cefotaxime, cefotaxime], for which the “Minimum inhibitory concentration (MIC)” value in data set [2] was 1/32; in data set [3], 1/128. At AmpC β-lactamase [4], this compound returned an IC50 of 800 nM.
As to `CC(=O)OCC1=C(C(=O)O)N2C(=O)[C@@H](NC(=O)Cc3cccs3)[C@H]2SC1` [Cephalothin, cephalothin], at AmpC β-lactamase [1], the Kcat amounted to 263 s⁻¹. Besides, the figures for the MIC in data set [2] (setting [8]) and in data set [3] (setting [8]) were 64 µg/mL (≈ 161 µM) and 8 µg/mL (≈ 20.2 µM), respectively.
In the case of `N[C@@H](C(=O)N[C@@H]1C(=O)N2C(C(=O)O)=C(Cl)CC[C@H]12)c1ccccc1` [Loracarbef, loracarbef], the Kcat at AmpC β-lactamase [1] turned out to be 118.3 s⁻¹; at AmpC β-lactamase [1] (listed as loracarbef) it was 118 s⁻¹. On AmpC β-lactamase [1], the Km was 23.7 µM. For the same compound, the “Minimum inhibitory concentration (MIC)” value came out at 8 µg/mL (≈ 22.9 µM) in data set [2] and 4 µg/mL (≈ 11.4 µM) in data set [3].
In the case of `CC1(C)S[C@@H]2[C@H](NC(=O)Cc3ccccc3)C(=O)N2[C@H]1C(=O)O` [Penicillin G, penicillin G], at AmpC β-lactamase [1], the Kcat is 133.1 s⁻¹ and the Km amounted to 5.05 µM. The Kcat at AmpC β-lactamase [1] (listed as penicillin G) stood at 133 s⁻¹.
For “AmpC β-lactamase (Escherichia coli K-12)”, the Km in data set [5] was 31.3 µM. Moreover, the values for the kcat in data set [5], in data set [6] and in data set [7] were 262 s⁻¹, 0.0448 s⁻¹ and less than 0.0045 s⁻¹, respectively.
